{
  "source": "PubChem BioAssay AID1259407",
  "about": "(Chemical Carcinogenesis Research Information System (CCRIS), 2018)",
  "test_system": "CCRIS mutagenicity, Ames/micronucleus/aberration tests",
  "assay": "CCRIS mutagenicity studies",
  "key": {"[1]": {"details": "End Point: IN VITRO CHROMOSOMAL ABERRATIONS, Test System: CHINESE HAMSTER OVARY CELLS, Metabolic Activation: NONE"}, "[2]": {"details": "End Point: IN VITRO CHROMOSOMAL ABERRATIONS, Test System: CHINESE HAMSTER OVARY CELLS, Metabolic Activation: RAT, LIVER, S-9, AROCLOR 1254"}, "[3]": {"details": "Test System: AMES SALMONELLA TYPHIMURIUM, Strain/Indicator: TA98, Metabolic Activation: NONE, Method: PREINCUBATION"}, "[4]": {"details": "Test System: AMES SALMONELLA TYPHIMURIUM, Strain/Indicator: TA100, Metabolic Activation: NONE, Method: PREINCUBATION"}, "[5]": {"details": "Test System: AMES SALMONELLA TYPHIMURIUM, Strain/Indicator: TA1535, Metabolic Activation: NONE, Method: PREINCUBATION"}, "[6]": {"details": "Test System: AMES SALMONELLA TYPHIMURIUM, Strain/Indicator: TA1537, Metabolic Activation: NONE, Method: PREINCUBATION"}},
  "note": "Active and inactive are the calls of the source. How the calls were made is not given here.",
  "data": [
    {"smiles": "COC(=O)C(c1ccccc1)C1CCCCN1", "note": "(stereo not given)", "values": [
      {"measurement": "mutagenic call", "setting": "[1]", "value": "inactive; negative"},
      {"measurement": "mutagenic call", "setting": "[2]", "value": "active; positive"},
      {"measurement": "mutagenic call", "setting": "End Point: In vivo chromosomal aberrations, Test System: Peripheral blood lymphocytes, Species: Monkey, Strain/Sex: Rhesus/Male, Route: Oral", "value": "inactive; negative"},
      {"measurement": "mutagenic call", "setting": "End Point: In vivo micronucleus, Test System: Peripheral blood lymphocytes, Species: Monkey, Strain/Sex: Rhesus/Male, Route: Oral", "value": "inactive; negative"},
      {"measurement": "mutagenic call", "setting": "Test System: AMES SALMONELLA TYPHIMURIUM, Strain/Indicator: TA97, Metabolic Activation: HAMSTER, LIVER, S-9, AROCLOR 1254 (10 OR 30%), Method: PREINCUBATION", "value": "inactive; negative"},
      {"measurement": "mutagenic call", "setting": "Test System: AMES SALMONELLA TYPHIMURIUM, Strain/Indicator: TA97, Metabolic Activation: NONE, Method: PREINCUBATION", "value": "inactive; negative"},
      {"measurement": "mutagenic call", "setting": "Test System: AMES SALMONELLA TYPHIMURIUM, Strain/Indicator: TA97, Metabolic Activation: RAT, LIVER, S-9, AROCLOR 1254 (10 OR 30%), Method: PREINCUBATION", "value": "inactive; negative"},
      {"measurement": "mutagenic call", "setting": "Test System: AMES SALMONELLA TYPHIMURIUM, Strain/Indicator: TA98, Metabolic Activation: HAMSTER, LIVER, S-9, AROCLOR 1254 (10%), Method: PREINCUBATION", "value": "inactive; negative"},
      {"measurement": "mutagenic call", "setting": "Test System: AMES SALMONELLA TYPHIMURIUM, Strain/Indicator: TA98, Metabolic Activation: HAMSTER, LIVER, S-9, AROCLOR 1254 (30%), Method: PREINCUBATION", "value": "inactive; negative"},
      {"measurement": "mutagenic call", "setting": "[3]", "value": "inactive; negative"},
      {"measurement": "mutagenic call", "setting": "Test System: AMES SALMONELLA TYPHIMURIUM, Strain/Indicator: TA98, Metabolic Activation: RAT, LIVER, S-9, AROCLOR 1254 (10%), Method: PREINCUBATION", "value": "inactive; negative"},
      {"measurement": "mutagenic call", "setting": "Test System: AMES SALMONELLA TYPHIMURIUM, Strain/Indicator: TA98, Metabolic Activation: RAT, LIVER, S-9, AROCLOR 1254 (30%), Method: PREINCUBATION", "value": "inactive; negative"},
      {"measurement": "mutagenic call", "setting": "Test System: AMES SALMONELLA TYPHIMURIUM, Strain/Indicator: TA100, Metabolic Activation: HAMSTER, LIVER, S-9, AROCLOR 1254 (10%), Method: PREINCUBATION", "value": "inactive; negative"},
      {"measurement": "mutagenic call", "setting": "Test System: AMES SALMONELLA TYPHIMURIUM, Strain/Indicator: TA100, Metabolic Activation: HAMSTER, LIVER, S-9, AROCLOR 1254 (30%), Method: PREINCUBATION", "value": "inactive; negative"},
      {"measurement": "mutagenic call", "setting": "[4]", "value": "inactive; negative"},
      {"measurement": "mutagenic call", "setting": "Test System: AMES SALMONELLA TYPHIMURIUM, Strain/Indicator: TA100, Metabolic Activation: RAT, LIVER, S-9, AROCLOR 1254 (10%), Method: PREINCUBATION", "value": "inactive; negative"},
      {"measurement": "mutagenic call", "setting": "Test System: AMES SALMONELLA TYPHIMURIUM, Strain/Indicator: TA100, Metabolic Activation: RAT, LIVER, S-9, AROCLOR 1254 (30%), Method: PREINCUBATION", "value": "inactive; negative"},
      {"measurement": "mutagenic call", "setting": "Test System: AMES SALMONELLA TYPHIMURIUM, Strain/Indicator: TA1535, Metabolic Activation: HAMSTER, LIVER, S-9, AROCLOR 1254 (10%), Method: PREINCUBATION", "value": "inactive; negative"},
      {"measurement": "mutagenic call", "setting": "Test System: AMES SALMONELLA TYPHIMURIUM, Strain/Indicator: TA1535, Metabolic Activation: HAMSTER, LIVER, S-9, AROCLOR 1254 (30%), Method: PREINCUBATION", "value": "inactive; negative"},
      {"measurement": "mutagenic call", "setting": "[5]", "value": "inactive; negative"},
      {"measurement": "mutagenic call", "setting": "Test System: AMES SALMONELLA TYPHIMURIUM, Strain/Indicator: TA1535, Metabolic Activation: RAT, LIVER, S-9, AROCLOR 1254 (10%), Method: PREINCUBATION", "value": "inactive; negative"},
      {"measurement": "mutagenic call", "setting": "Test System: AMES SALMONELLA TYPHIMURIUM, Strain/Indicator: TA1535, Metabolic Activation: RAT, LIVER, S-9, AROCLOR 1254 (30%), Method: PREINCUBATION", "value": "inactive; negative"},
      {"measurement": "mutagenic call", "setting": "Test System: AMES SALMONELLA TYPHIMURIUM, Strain/Indicator: TA1537, Metabolic Activation: HAMSTER, LIVER, S-9, AROCLOR 1254 (10%), Method: PREINCUBATION", "value": "inactive; negative"},
      {"measurement": "mutagenic call", "setting": "[6]", "value": "inactive; negative"},
      {"measurement": "mutagenic call", "setting": "Test System: AMES SALMONELLA TYPHIMURIUM, Strain/Indicator: TA1537, Metabolic Activation: RAT, LIVER, S-9, AROCLOR 1254 (10%), Method: PREINCUBATION", "value": "inactive; negative"},
      {"measurement": "mutagenic call", "setting": "Test System: Rhesus monkey peripheral blood lymphocytes, Strain/Indicator: HPRT/6-Thioguanine, Metabolic Activation: None, Method: Determined at 3-mo intervals from test subjects exposed to test chemical for 20 mo", "value": "inactive; negative"}
    ]},
    {"smiles": "CCCCC1C(=O)N(c2ccccc2)N(c2ccccc2)C1=O", "values": [
      {"measurement": "mutagenic call", "setting": "[1]", "value": "inactive; negative"},
      {"measurement": "mutagenic call", "setting": "[2]", "value": "active; positive"},
      {"measurement": "mutagenic call", "setting": "Test System: AMES SALMONELLA TYPHIMURIUM, Strain/Indicator: TA97A, Metabolic Activation: NONE, Method: STANDARD PLATE", "value": "inactive; negative"},
      {"measurement": "mutagenic call", "setting": "Test System: AMES SALMONELLA TYPHIMURIUM, Strain/Indicator: TA97A, Metabolic Activation: RAT LIVER S-9, PHENOBARBITAL, Method: STANDARD PLATE", "value": "inactive; negative"},
      {"measurement": "mutagenic call", "setting": "Test System: AMES SALMONELLA TYPHIMURIUM, Strain/Indicator: TA98, Metabolic Activation: HAMSTER, LIVER, S-9, AROCLOR 1254, Method: PREINCUBATION", "value": "inactive; negative"},
      {"measurement": "mutagenic call", "setting": "[3]", "value": "inactive; negative"},
      {"measurement": "mutagenic call", "setting": "Test System: AMES SALMONELLA TYPHIMURIUM, Strain/Indicator: TA98, Metabolic Activation: NONE, Method: STANDARD PLATE", "value": "inactive; negative"},
      {"measurement": "mutagenic call", "setting": "Test System: AMES SALMONELLA TYPHIMURIUM, Strain/Indicator: TA98, Metabolic Activation: RAT LIVER S-9, PHENOBARBITAL, Method: STANDARD PLATE", "value": "inactive; negative"},
      {"measurement": "mutagenic call", "setting": "Test System: AMES SALMONELLA TYPHIMURIUM, Strain/Indicator: TA98, Metabolic Activation: RAT, LIVER, S-9, AROCLOR 1254, Method: PREINCUBATION", "value": "inactive; negative"},
      {"measurement": "mutagenic call", "setting": "Test System: AMES SALMONELLA TYPHIMURIUM, Strain/Indicator: TA100, Metabolic Activation: HAMSTER, LIVER, S-9, AROCLOR 1254, Method: PREINCUBATION", "value": "inactive; negative"},
      {"measurement": "mutagenic call", "setting": "[4]", "value": "inactive; negative"},
      {"measurement": "mutagenic call", "setting": "Test System: AMES SALMONELLA TYPHIMURIUM, Strain/Indicator: TA100, Metabolic Activation: NONE, Method: STANDARD PLATE", "value": "inactive; negative"},
      {"measurement": "mutagenic call", "setting": "Test System: AMES SALMONELLA TYPHIMURIUM, Strain/Indicator: TA100, Metabolic Activation: RAT LIVER S-9 PHENOBARBITAL, Method: STANDARD PLATE", "value": "inactive; negative"},
      {"measurement": "mutagenic call", "setting": "Test System: AMES SALMONELLA TYPHIMURIUM, Strain/Indicator: TA100, Metabolic Activation: RAT, LIVER, S-9, AROCLOR 1254, Method: PREINCUBATION", "value": "inactive; negative"},
      {"measurement": "mutagenic call", "setting": "Test System: AMES SALMONELLA TYPHIMURIUM, Strain/Indicator: TA102, Metabolic Activation: NONE, Method: STANDARD PLATE", "value": "inactive; negative"},
      {"measurement": "mutagenic call", "setting": "Test System: AMES SALMONELLA TYPHIMURIUM, Strain/Indicator: TA102, Metabolic Activation: RAT LIVER S-9, PHENOBARBITAL, Method: STANDARD PLATE", "value": "inactive; negative"},
      {"measurement": "mutagenic call", "setting": "Test System: AMES SALMONELLA TYPHIMURIUM, Strain/Indicator: TA1535, Metabolic Activation: HAMSTER, LIVER, S-9, AROCLOR 1254, Method: PREINCUBATION", "value": "inactive; negative"},
      {"measurement": "mutagenic call", "setting": "[5]", "value": "inactive; negative"},
      {"measurement": "mutagenic call", "setting": "Test System: AMES SALMONELLA TYPHIMURIUM, Strain/Indicator: TA1535, Metabolic Activation: RAT, LIVER, S-9, AROCLOR 1254, Method: PREINCUBATION", "value": "inactive; negative"},
      {"measurement": "mutagenic call", "setting": "Test System: AMES SALMONELLA TYPHIMURIUM, Strain/Indicator: TA1537, Metabolic Activation: HAMSTER, LIVER, S-9, AROCLOR 1254, Method: PREINCUBATION", "value": "inactive; negative"},
      {"measurement": "mutagenic call", "setting": "[6]", "value": "inactive; negative"},
      {"measurement": "mutagenic call", "setting": "Test System: AMES SALMONELLA TYPHIMURIUM, Strain/Indicator: TA1537, Metabolic Activation: RAT, LIVER, S-9, AROCLOR 1254, Method: PREINCUBATION", "value": "inactive; negative"},
      {"measurement": "mutagenic call", "setting": "Test System: MOUSE LYMPHOMA, Strain/Indicator: L5178Y (TK+/TK-), Metabolic Activation: NONE, Method: SUSPENSION/PLATE", "value": "active; positive"},
      {"measurement": "mutagenic call", "setting": "Test System: MOUSE LYMPHOMA, Strain/Indicator: L5178Y (TK+/TK-), Metabolic Activation: RAT, LIVER, S-9, AROCLOR 1254, Method: SUSPENSION/PLATE", "value": "active; positive"}
    ]}
  ]
}
